{"source": "patent US20260262643A1", "about": "“HERBICIDAL BENZOXAZINES” (FMC CORPORATION, priority 2022, published 2026)", "key": {"[1]": {"test_system": "horseweed", "assay": "Test C postemergence", "format": "in vivo, Erigeron canadensis", "settings": "10 days, 0 to 100 scale (0 no effect, 100 complete control)", "outline": "(§1)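 Soil-applied (pre) and foliar (post, 1–2 leaf, 2–10 cm) sprays; surfactant-containing non-phytotoxic solvent vehicle; loam/sand substrate. Readout: visual % control at 10 d, greenhouse, versus untreated.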"}, "[2]": {"test_system": "corn", "assay": "Test C postemergence", "format": "in vivo, Zea mays", "settings": "10 days, 0 to 100 scale (0 no effect, 100 complete control)", "outline": "as §1"}, "[3]": {"test_system": "oat, wild", "assay": "Test C preemergence", "format": "in vivo, Avena fatua", "outline": "as §1"}, "[4]": {"test_system": "ryegrass, Italian", "assay": "Test C postemergence", "format": "in vivo, Lolium multiflorum", "settings": "10 days, 0 to 100 scale (0 no effect, 100 complete control)", "outline": "as §1"}, "[5]": {"test_system": "ducksalad", "assay": "Test D flooded paddy test", "format": "in vivo, Heteranthera limosa", "settings": "250 g ai/ha, applied to paddy water, visual rating after 13 to 14 days, scale 0 to 100 (0 no effect, 100 complete control)", "outline": "(§2)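 Plants grown to the 2-leaf stage; pots flooded to 3 cm above soil at treatment and held at that depth throughout. Test compounds applied directly to the paddy water. After 13 to 14 days in a greenhouse, response was rated visually versus controls on a 0 (no effect) to 100 (complete control) scale.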"}, "[6]": {"test_system": "oat, wild", "assay": "Test C postemergence", "format": "in vivo, Avena fatua", "settings": "10 days, 0 to 100 scale (0 no effect, 100 complete control)", "outline": "as §1"}, "[7]": {"test_system": "pigweed, palmer", "assay": "Test C postemergence", "format": "in vivo, Amaranthus palmeri", "settings": "10 days, 0 to 100 scale (0 no effect, 100 complete control)", "outline": "as §1"}, "[8]": {"test_system": "blackgrass", "assay": "Test C postemergence", "format": "in vivo, Alopecurus myosuroides", "settings": "10 days, 0 to 100 scale (0 no effect, 100 complete control)", "outline": "as §1"}, "[9]": {"test_system": "ragweed", "assay": "Test C preemergence", "format": "in vivo, Ambrosia artemisiifolia", "outline": "as §1"}, "[10]": {"test_system": "soybean", "assay": "Test C postemergence", "format": "in vivo, Glycine max", "settings": "10 days, 0 to 100 scale (0 no effect, 100 complete control)", "outline": "as §1"}, "[11]": {"test_system": "galium", "assay": "Test C postemergence", "format": "in vivo, Galium aparine", "settings": "10 days, 0 to 100 scale (0 no effect, 100 complete control)", "outline": "as §1"}, "[12]": {"test_system": "sedge, umbrella", "assay": "Test D flooded paddy test", "format": "in vivo, Cyperus difformis", "settings": "250 g ai/ha, applied to paddy water, visual rating after 13 to 14 days, scale 0 to 100 (0 no effect, 100 complete control)", "outline": "as §2"}, "[13]": {"test_system": "pigweed, palmer", "assay": "Test C preemergence", "format": "in vivo, Amaranthus palmeri", "outline": "as §1"}, "[14]": {"test_system": "ragweed", "assay": "Test C postemergence", "format": "in vivo, Ambrosia artemisiifolia", "settings": "10 days, 0 to 100 scale (0 no effect, 100 complete control)", "outline": "as §1"}, "[15]": {"test_system": "barnyardgrass", "assay": "Test D flooded paddy test", "format": "in vivo, Echinochloa crus-galli", "settings": "250 g ai/ha, applied to paddy water, visual rating after 13 to 14 days, scale 0 to 100 (0 no effect, 100 complete control)", "outline": "as §2"}, "[16]": {"test_system": "barnyardgrass", "assay": "Test C postemergence", "format": "in vivo, Echinochloa crusgalli", "settings": "10 days, 0 to 100 scale (0 no effect, 100 complete control)", "outline": "as §1"}, "[17]": {"test_system": "ryegrass, Italian", "assay": "Test C preemergence", "format": "in vivo, Lolium multiflorum", "outline": "as §1"}, "[18]": {"test_system": "wheat", "assay": "Test C preemergence", "format": "in vivo, Triticum aestivum", "outline": "as §1"}, "[19]": {"test_system": "soybean", "assay": "Test C preemergence", "format": "in vivo, Glycine max", "outline": "as §1"}, "[20]": {"test_system": "rice", "assay": "Test D flooded paddy test", "format": "in vivo, Oryza sativa", "settings": "250 g ai/ha, applied to paddy water, visual rating after 13 to 14 days, scale 0 to 100 (0 no effect, 100 complete control)", "outline": "as §2"}, "[21]": {"test_system": "green foxtail", "assay": "Test C postemergence", "format": "in vivo, Setaria viridis", "settings": "10 days, 0 to 100 scale (0 no effect, 100 complete control)", "outline": "as §1"}, "[22]": {"test_system": "barnyardgrass", "assay": "Test C preemergence", "format": "in vivo, Echinochloa crusgalli", "outline": "as §1"}, "[23]": {"test_system": "wheat", "assay": "Test C postemergence", "format": "in vivo, Triticum aestivum", "settings": "10 days, 0 to 100 scale (0 no effect, 100 complete control)", "outline": "as §1"}, "[24]": {"test_system": "kochia", "assay": "Test C preemergence", "format": "in vivo, Bassia scoparia", "outline": "as §1"}, "[25]": {"test_system": "kochia", "assay": "Test C postemergence", "format": "in vivo, Bassia scoparia", "settings": "10 days, 0 to 100 scale (0 no effect, 100 complete control)", "outline": "as §1"}, "[26]": {"test_system": "blackgrass", "assay": "Test C preemergence", "format": "in vivo, Alopecurus myosuroides", "outline": "as §1"}, "[27]": {"test_system": "corn", "assay": "Test C preemergence", "format": "in vivo, Zea mays", "outline": "as §1"}, "[28]": {"test_system": "green foxtail", "assay": "Test C preemergence", "format": "in vivo, Setaria viridis", "outline": "as §1"}, "[29]": {"settings": "500 g ai/ha, preemergence, 0 to 100 scale (0 no effect, 100 complete control)"}, "[30]": {"settings": "Preemergence, 125 g ai/ha, 0 to 100 scale, 0 no effect, 100 complete control"}}, "data": [{"smiles": "CC(C)c1ncn(-c2ccc(OS(C)(=O)=O)c(C(=O)N3C[C@H](C)Oc4c(Cl)cccc43)c2)n1", "note": "[Compound 338]", "values": [{"measurement": "Plant response rating, Horseweed", "setting": "[1]; 500 g ai/ha, postemergence", "value": 20}, {"measurement": "Plant response rating, Horseweed", "setting": "[1]; Postemergence, 125 g ai/ha", "value": 10}, {"measurement": "Plant response rating, Corn", "setting": "[2]; 500 g ai/ha, postemergence", "value": 80}, {"measurement": "Plant response rating, Corn", "setting": "[2]; Postemergence, 125 g ai/ha", "value": 80}, {"measurement": "Oat, Wild plant response rating", "setting": "[3]; [29]", "value": 50}, {"measurement": "Plant response rating, Oat, Wild", "setting": "[3]; [30]", "value": 30}, {"measurement": "Plant response rating, Ryegrass, Italian", "setting": "[4]; 500 g ai/ha, postemergence", "value": 80}, {"measurement": "Plant response rating, Ryegrass, Italian", "setting": "[4]; Postemergence, 125 g ai/ha", "value": 70}, {"measurement": "Plant response rating, Ducksalad (Flood)", "setting": "[5]", "value": 40}, {"measurement": "Plant response rating, Oat, Wild", "setting": "[6]; 500 g ai/ha, postemergence", "value": 20}, {"measurement": "Plant response rating, Oat, Wild", "setting": "[6]; Postemergence, 125 g ai/ha", "value": 20}, {"measurement": "Plant response rating, Pigweed, Palmer", "setting": "[7]; 500 g ai/ha, postemergence", "value": 100}, {"measurement": "Plant response rating, Pigweed, Palmer", "setting": "[7]; Postemergence, 125 g ai/ha", "value": 90}, {"measurement": "Plant response rating, Blackgrass", "setting": "[8]; 500 g ai/ha, postemergence", "value": 70}, {"measurement": "Plant response rating, Blackgrass", "setting": "[8]; Postemergence, 125 g ai/ha", "value": 40}, {"measurement": "Ragweed plant response rating", "setting": "[9]; [29]", "value": 0}, {"measurement": "Plant response rating, Ragweed", "setting": "[9]; [30]", "value": 0}, {"measurement": "Plant response rating, Soybean", "setting": "[10]; 500 g ai/ha, postemergence", "value": 100}, {"measurement": "Plant response rating, Soybean", "setting": "[10]; Postemergence, 125 g ai/ha", "value": 100}, {"measurement": "Plant response rating, Galium", "setting": "[11]; 500 g ai/ha, postemergence", "value": 100}, {"measurement": "Plant response rating, Galium", "setting": "[11]; Postemergence, 125 g ai/ha", "value": 100}, {"measurement": "Plant response rating, Sedge, Umbrella (Flood)", "setting": "[12]", "value": 45}, {"measurement": "Pigweed, Palmer plant response rating", "setting": "[13]; [29]", "value": 100}, {"measurement": "Plant response rating, Pigweed, Palmer", "setting": "[13]; [30]", "value": 100}, {"measurement": "Plant response rating, Ragweed", "setting": "[14]; 500 g ai/ha, postemergence", "value": 40}, {"measurement": "Plant response rating, Ragweed", "setting": "[14]; Postemergence, 125 g ai/ha", "value": 30}, {"measurement": "Plant response rating, Barnyardgrass (Flood)", "setting": "[15]", "value": 10}, {"measurement": "Plant response rating, Barnyardgrass", "setting": "[16]; 500 g ai/ha, postemergence", "value": 70}, {"measurement": "Plant response rating, Barnyardgrass", "setting": "[16]; Postemergence, 125 g ai/ha", "value": 30}, {"measurement": "Ryegrass, Italian plant response rating", "setting": "[17]; [29]", "value": 100}, {"measurement": "Plant response rating, Ryegrass, Italian", "setting": "[17]; [30]", "value": 90}, {"measurement": "Wheat plant response rating", "setting": "[18]; [29]", "value": 20}, {"measurement": "Plant response rating, Wheat", "setting": "[18]; [30]", "value": 0}, {"measurement": "Soybean plant response rating", "setting": "[19]; [29]", "value": 80}, {"measurement": "Plant response rating, Soybean", "setting": "[19]; [30]", "value": 30}, {"measurement": "Plant response rating, Rice (Flood)", "setting": "[20]", "value": 10}, {"measurement": "Plant response rating, Foxtail, Green", "setting": "[21]; 500 g ai/ha, postemergence", "value": 70}, {"measurement": "Plant response rating, Foxtail, Green", "setting": "[21]; Postemergence, 125 g ai/ha", "value": 30}, {"measurement": "Barnyardgrass plant response rating", "setting": "[22]; [29]", "value": 100}, {"measurement": "Plant response rating, Barnyardgrass", "setting": "[22]; [30]", "value": 60}, {"measurement": "Plant response rating, Wheat", "setting": "[23]; 500 g ai/ha, postemergence", "value": 40}, {"measurement": "Plant response rating, Wheat", "setting": "[23]; Postemergence, 125 g ai/ha", "value": 20}, {"measurement": "Kochia plant response rating", "setting": "[24]; [29]", "value": 100}, {"measurement": "Plant response rating, Kochia", "setting": "[24]; [30]", "value": 60}, {"measurement": "Plant response rating, Kochia", "setting": "[25]; 500 g ai/ha, postemergence", "value": 100}, {"measurement": "Plant response rating, Kochia", "setting": "[25]; Postemergence, 125 g ai/ha", "value": 90}, {"measurement": "Blackgrass plant response rating", "setting": "[26]; [29]", "value": 80}, {"measurement": "Plant response rating, Blackgrass", "setting": "[26]; [30]", "value": 20}, {"measurement": "Corn plant response rating", "setting": "[27]; [29]", "value": 50}, {"measurement": "Plant response rating, Corn", "setting": "[27]; [30]", "value": 10}, {"measurement": "Foxtail, Green plant response rating", "setting": "[28]; [29]", "value": 100}, {"measurement": "Plant response rating, Foxtail, Green", "setting": "[28]; [30]", "value": 90}]}]}
